For 12 molecules, DC50, EC50 and Emax results are on record in US20250320205A1, “STAT6 DEGRADERS” (Gilead Sciences, Inc., priority 2024, published 2025).

The DC50 is the concentration at which degradation of the target reaches its halfway point. What is called EC50 is the concentration giving half of the maximal effect. Lower therefore signals higher potency in that assay. One may read the Emax as the maximal effect, on the per cent scale that the assay sets.

One experiment addresses T1, STAT6 (Homo sapiens, UniProt P42226).
T1 construct: These cells express endogenous STAT6; host or cells: HeLa LgBiT clone 4.14 (CRISPR knock-in of HiBiT into the endogenous STAT6 gene)
T1 sequence (P42226 1-847): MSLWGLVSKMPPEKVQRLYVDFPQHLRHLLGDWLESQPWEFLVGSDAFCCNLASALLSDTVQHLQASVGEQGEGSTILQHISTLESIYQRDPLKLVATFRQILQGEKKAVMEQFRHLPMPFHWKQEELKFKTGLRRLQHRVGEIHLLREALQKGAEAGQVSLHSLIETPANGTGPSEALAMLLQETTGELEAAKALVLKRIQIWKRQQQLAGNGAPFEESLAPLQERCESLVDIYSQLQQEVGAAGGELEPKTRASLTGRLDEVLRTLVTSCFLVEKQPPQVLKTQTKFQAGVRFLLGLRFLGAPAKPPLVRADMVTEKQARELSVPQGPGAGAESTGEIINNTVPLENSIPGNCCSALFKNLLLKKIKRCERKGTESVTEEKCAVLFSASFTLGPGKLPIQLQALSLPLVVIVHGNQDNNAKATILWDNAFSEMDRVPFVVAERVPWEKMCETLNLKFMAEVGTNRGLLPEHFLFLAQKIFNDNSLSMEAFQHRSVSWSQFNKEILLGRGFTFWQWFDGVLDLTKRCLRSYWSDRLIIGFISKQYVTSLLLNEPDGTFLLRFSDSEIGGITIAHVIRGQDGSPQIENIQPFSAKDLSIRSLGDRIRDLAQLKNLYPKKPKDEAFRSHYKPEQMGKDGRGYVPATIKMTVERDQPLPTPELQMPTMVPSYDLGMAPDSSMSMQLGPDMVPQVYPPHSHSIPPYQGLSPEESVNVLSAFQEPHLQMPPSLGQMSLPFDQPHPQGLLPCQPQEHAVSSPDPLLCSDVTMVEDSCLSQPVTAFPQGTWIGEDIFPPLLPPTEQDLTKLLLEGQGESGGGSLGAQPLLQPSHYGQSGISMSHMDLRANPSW
Put plainly: STAT6 Degrader Assay (HiBiT based, HeLa LgBiT clone 4.14 cells). Particulars: for DC50: geometric mean across assay runs and compound batches, DC50 provided for test compounds with >80% Emax, read-out: STAT6 degradation DC50. The experiment is classed as cell-based. The method in brief:
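HeLa LgBiT clone 4.14 with CRISPR HiBiT-tagged endogenous STAT6, 5000 cells/well, compound exposure 4-24 h at 37° C. Residual STAT6 read as Nano-Glo luminescence after 0.5 h. 50 μM terfenadine set 100% degradation; DC50 in nM.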
A general note: HiBiT is a short tag that completes a luciferase, so light tracks the accessible tagged protein.

The test system of experiment [1] is Eotaxin-3 (CCL26) release. Put plainly: Human Whole Blood Eotaxin-3 Assay (IL-4 stimulated). The class given is cell-based. Particulars: Homo sapiens; geometric mean across assay runs and compound batches; EC50 provided for test compounds with >80% Emax. The protocol:
This was a human whole blood assay using recombinant human Interleukin 4 to stimulate the blood and measuring the ability of the test compounds to inhibit eotaxin-3 release. The biological activities of the test compounds have been tested in human whole blood stimulated with IL-4 measuring Eotaxin-3 release. The test compounds were added to 384 well clear flat-bottom plate in a 4-fold serial dilution in triplicates using a liquid handler. Human whole blood stabilized in lithium-heparin tubes was added in a volume of 65 μL per well, resulting in a final DMSO concentration of 0.5%. The plate is incubated for 2 h at 37° C. under 5% CO2/95% air. Subsequently, 5 μL of recombinant human IL-4 (R&D Systems, cat #204-ILB) was added to the wells to a final concentration of 400 pM. The plate was incubated for 48 h at 37° C. under 5% CO2/95% air. The plate was spun down for 10 minutes at 500×g and 20 μL supernatant was harvested and transferred to a 384 well v-bottom plate using a liquid handler and stored at −20° C. until further analysis. 10 μL supernatant was used to measure the level of Eotaxin-3 (CCL26) using Human Eotaxin-3 MSD kit from Mesocsale (Cat #K251UEK-4). The assay was performed according to the manufacture instructions.

Regarding `CNc1ccn(-c2ccnc3c2cc([C@H](C)N2CC=C(c4c(F)cc(C(=O)N5CCn6nc(CN7CCC(c8ccc(NC9CCC(=O)NC9=O)cc8F)CC7)cc6C5)cc4F)CC2)n3C)c(=O)c1` (stereo partly drawn) [Example 2g108, 3-((4-(1-((5-(3,5-difluoro-4-(1-((S)-1-(1-methyl-4-(4-(methylamino)-2-oxopyridin-1(2H)-yl)-1H-pyrrolo[2,3-b]pyridin-2-yl)ethyl)-1,2,3,6-tetrahydropyridin-4-yl)benzo-yl)-4,5,6,7-tetrahydropyrazolo [1,5-a]pyrazin-2-yl)methyl)-piperidin-4-yl)-3-fluorophen-yl)amino)piperidine-2,6-dione], at STAT6, the DC50 was found to be 0.5 nM. Further, the midpoint of the response in experiment [1], the EC50, lay at 0.7 nM.

Consider `Cc1cc(C(=O)N2CCn3nc(CN4CCC(c5ccc(NC6CCC(=O)NC6=O)cc5F)CC4)cc3C2)cc(F)c1C1=CCN([C@@H](C)c2cc3c(-n4ccc5c(c4=O)CCN5)ccnc3n2C)CC1` (stereo partly drawn) [Example 2g25, 3-((3-fluoro-4-(1-((5-(3-fluoro-5-methyl-4-(1-((S)-1-(1-methyl-4-(4-oxo-1,2,3,4-tetrahydro-5H-pyrrolo[3,2-c]pyridin-5-yl)-1H-pyrrolo[2,3-b]pyridin-2-yl)ethyl)-1,2,3,6-tetrahydropyridin-4-yl)benzo-yl)-4,5,6,7-tetrahydropyrazolo [1,5-a]pyrazin-2-yl)methyl)-piperidin-4-yl)phenyl)amino)-piperidine-2,6-dione], for which the DC50 at STAT6 came to 0.6 nM. The same molecule showed an EC50 in experiment [1] of 0.4 nM.

For `CNc1cc(=O)n(-c2ccnc3c2cc([C@H](C)N2CC=C(c4c(C)cc(C(=O)N5CCn6nc(CN7CCC(c8ccc(N[C@H]9CCC(=O)NC9=O)cc8F)CC7)cc6C5)cc4F)CC2)n3C)cc1F` (single isomer, unassigned) [Example 2g6], the DC50 on STAT6 came to 0.3 nM. The molecule also came in with an EC50 in experiment [1] of 1.5 nM.

`CNc1ccn(-c2ccnc3c2cc([C@H](C)N2CCC(c4ccc(C(=O)N5CCC(CN6CCN(c7ccc(NC8CCC(=O)NC8=O)cc7F)CC6)CC5)cc4)CC2)n3C)c(=O)c1` (stereo partly drawn) [Example 2c31, 3-((3-fluoro-4-(4-((1-(4-(1-((S)-1-(1-methyl-4-(4-(meth-ylamino)-2-oxopyridin-1(2H)-yl)-1H-pyrrolo[2,3-b]pyridin-2-yl)ethyl)piperidin-4-yl)-benzoyl)piperidin-4-yl)meth-yl)piperzin-1-yl)phenyl)-amino)-piperidine-2,6-dione] displayed an Emax on STAT6 (HeLa, maximal STAT6 degradation) of 70 to 80%. Moreover, in experiment [1], the EC50 was determined as 22.5 nM.

Regarding `CNc1ccn(-c2ccnc3c2cc([C@@H](C)N2CC=C(c4c(F)cc(C(=O)N5CCn6nc(CN7CCC(c8ccc(NC9CCC(=O)NC9=O)cc8F)CC7)cc6C5)cc4F)CC2)n3C)c(=O)c1` (stereo partly drawn) [Example 2g103, 3-((4-(1-((5-(3,5-difluoro-4-(1-((R)-1-(1-methyl-4-(4-(methylamino)-2-oxopyridin-1(2H)-yl)-1H-pyrrolo[2,3-b]pyridin-2-yl)ethyl)-1,2,3,6-tetrahydropyridin-4-yl)benzo-yl)-4,5,6,7-tetrahydropyrazolo [1,5-a]pyrazin-2-yl)methyl)-piperidin-4-yl)-3-fluorophen-yl)amino)piperidine-2,6-dione], at STAT6, the DC50 is 8.8 nM. Further, the EC50 in experiment [1] was determined as 13.1 nM.

For `CNc1cc(=O)n(-c2ccnc3c2cc(CN2CCC(c4c(F)cc(C(=O)N5CCn6nc(CN7CCC(c8ccc(NC9CCC(=O)NC9=O)c(OC)c8)CC7)cc6C5)cc4F)CC2)n3C)cc1F` (stereo not drawn) [Example 2g122, 3-((4-(1-((5-(3,5-difluoro-4-(1-((4-(5-fluoro-4-(methyl-amino)-2-oxopyridin-1(2H)-yl)-1-methyl-1H-pyrrolo[2,3-b]pyridin-2-yl)methyl)piperi-din-4-yl)benzoyl)-4,5,6,7-tetrahydropyrazolo[1,5-a]pyr-azin-2-yl)methyl)piperidin-4-yl)-2-methoxyphenyl)amino)-piperidine-2,6-dione], the DC50 on STAT6 stood at 1.8 nM. In experiment [1], this molecule showed an EC50 of 3.6 nM.

As for `CNc1ccn(-c2ccnc3c2cc([C@H](C)N2CC=C(c4c(C)cc(C(=O)N5CCC(CN6CCN(c7ccc(N[C@H]8CCC(=O)NC8=O)cc7F)C[C@@H]6C)CC5)cc4F)CC2)n3C)c(=O)c1` (single isomer, unassigned) [Example 2g98], the DC50 at STAT6 came to 6.9 nM. In experiment [1], this molecule yielded a concentration giving a half-maximal response (EC50) of 16.7 nM.

Take `CNc1ccn(-c2ccnc3c2cc([C@H](C)N2CCC(c4c(F)cc(C(=O)N5CCn6nc(CN7CCC(c8ccc(NC9CCC(=O)NC9=O)cc8F)CC7)cc6C5)cc4F)CC2)n3C)c(=O)c1` (stereo partly drawn) [Example 2g109, 3-((4-(1-((5-(3,5-difluoro-4-(1-((S)-1-(1-methyl-4-(4-(methylamino)-2-oxopyridin-1(2H)-yl)-1H-pyrrolo[2,3-b]pyridin-2-yl)ethyl)piperidin-4-yl)benzoyl)-4,5,6,7-tetra-hydropyrazolo[1,5-a]pyrazin-2-yl)methyl)piperidin-4-yl)-3-fluorophenyl)amino)piperi-dine-2,6-dione]: the DC50 at STAT6 turned out to be 0.4 nM. The EC50 in experiment [1] was 0.3 nM.

On to `CNc1ccn(-c2ccnc3c2cc(CN2CCC(c4c(F)cc(C(=O)N5CCn6nc(CN7CCC(c8ccc(NC9CCC(=O)NC9=O)cc8F)CC7)cc6C5)cc4F)CC2)n3C)c(=O)c1` (single isomer, unassigned) [Example 2g101], for which the DC50 at STAT6 came to 1 nM. The same molecule registered an EC50 in experiment [1] of 0.4 nM.

For `CNc1ccn(-c2ccnc3c2cc([C@H](C)N2CC=C(c4c(C)cc(C(=O)N5CCC(CN6CCN(Cc7ccc(NC8CCC(=O)NC8=O)c(F)c7)CC6)CC5)cc4F)CC2)n3C)c(=O)c1` (stereo partly drawn) [Example 2g10, 3-((2-fluoro-4-((4-((1-(3-fluoro-5-methyl-4-(1-((S)-1-(1-methyl-4-(4-(methyl-amino)-2-oxopyridin-1(2H)-yl)-1H-pyrrolo[2,3-b]pyridin-2-yl)ethyl)-1,2,3,6-tetrahydro-pyridin-4-yl)benzoyl)-piper-idin-4-yl)methyl)piperazin-1-yl)methyl)phenyl)amino)-piperidine-2,6-dione], the DC50 at STAT6 worked out at 11.4 nM. The molecule further registered an EC50 in experiment [1] of 19.2 nM.

As for `CNc1cc(=O)n(-c2ccnc3c2cc(CN2CCC(c4c(F)cc(C(=O)N5CCC(CN6CCN(c7ccc(NC8CCC(=O)NC8=O)cc7F)CC6)CC5)cc4F)CC2)n3C)cc1F` (stereo not drawn) [Example 2g32, 3-((4-(4-((1-(3,5-difluoro-4-(1-((4-(5-fluoro-4-(methyl-amino)-2-oxopyridin-1(2H)-yl)-1-methyl-1H-pyrrolo[2,3-b]pyridin-2-yl)methyl)piperi-din-4-yl)benzoyl)piperidin-4-yl)methyl)piperazin-1-yl)-3-fluorophenyl)amino)piperi-dine-2,6-dione], the DC50 on STAT6 was found to be 10.6 nM. In experiment [1], this molecule returned an EC50 of 56.9 nM.

Turning to `C[C@@H]1CN(c2ccc(NC3CCC(=O)NC3=O)cc2F)CCN1CC1CCN(C(=O)c2ccc(C3CCN([C@@H](C)c4cc5c(-n6ccc7c(c6=O)CCN7)ccnc5n4C)CC3)cc2)CC1` (stereo partly drawn) [Example 2f14, 3-((3-fluoro-4-((R)-3-methyl-4-((1-(4-(1-((S)-1-(1-methyl-4-(4-oxo-1,2,3,4-tetrahydro-5H-pyrrolo[3,2-c]pyridin-5-yl)-1H-pyrrolo[2,3-b]pyridin-2-yl)ethyl)piperidin-4-yl)-benzoyl)piperidin-4-yl)-meth-yl)piperazin-1-yl)phenyl)-amino)piperidine-2,6-dione], the DC50 on STAT6 was determined as 7.8 nM. The molecule also returned an EC50 in experiment [1] of 18.6 nM.
